These results are taken from patent US7772263B2, “Compounds for the treatment of inflammatory disorders” (Schering Corporation, priority 2006, dated 2010).

SMILES strings stand for the structures.

The target of one experiment is T1, purified catalytic domain of recombinant human TACE (rhTACEc) (Homo sapiens, UniProt P78536, N452Q/S266A).
T1 construct: rhTACEc, Residue 215 to 477 with two mutation (S266A and N4520) and a 6×His tail; 6xHis (C); made in house; host or cells: baculovirus/Hi5 insect cells
T1 sequence (P78536 215-477 S266A/N452Q limits assumed): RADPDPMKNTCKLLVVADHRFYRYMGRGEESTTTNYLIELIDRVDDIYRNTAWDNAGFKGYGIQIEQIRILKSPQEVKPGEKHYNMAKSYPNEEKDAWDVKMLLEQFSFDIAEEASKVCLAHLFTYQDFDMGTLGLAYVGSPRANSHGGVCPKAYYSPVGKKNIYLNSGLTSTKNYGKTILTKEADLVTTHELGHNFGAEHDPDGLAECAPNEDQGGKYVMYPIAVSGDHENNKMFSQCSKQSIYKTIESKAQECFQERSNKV
In words: TACE kinetic assay, cleavage of internally quenched fluorescent peptide substrate SPDL-3. The format is biochemical. To be noted: Ki (nM), TACE inhibitory activity, rhTACEc 70 pM, 30 μM SPDL-3, 90 min pre-incubation at 25° C.
For the compound `COc1ccc2c(c1)C(=O)N(C[C@@]1(C#Cc3ccccc3F)NC(=O)NC1=O)C2` [Compound 516], the Ki – broadly, the dissociation constant of the complex between target and ligand, obtained from inhibition or displacement – is 0.13 nM.

Still in this experiment, the particulars now being: TACE inhibition, Table 1001; read-out: Ki Rating.
As to `COc1ccc2c(c1)C(=O)N(C[C@@]1(C#Cc3cncc(-n4cccn4)c3)NC(=O)NC1=O)C2` [Compound 482B], the Ki was less than 5 nM.

Regarding `COc1ccc2c(c1)C(=O)N(C[C@@]1(C#Cc3cncc(-n4ccnc4C)c3)NC(=O)NC1=O)C2` [Compound 482C], the Ki is less than 5 nM.

`COc1ccc2c(c1)C(=O)N(C[C@@]1(C#Cc3cncc(N4CCOCC4)c3)NC(=O)NC1=O)C2` [Compound 482]: the Ki is less than 5 nM.

Take `COc1ccc2c(c1)C(=O)N(C[C@@]1(C#Cc3ccc(F)c(F)c3)NC(=O)NC1=O)C2` [Compound 483]: the Ki is less than 5 nM.

As for `COc1ccc2c(c1)C(=O)N(C[C@@]1(C#Cc3ccc(OC(F)(F)F)cc3)NC(=O)NC1=O)C2` [Compound 484], the inhibition constant (Ki) was less than 5 nM.

On to `COc1ccc2c(c1)C(=O)N(C[C@@]1(C#Cc3ccc(Cl)cc3)NC(=O)NC1=O)C2` [Compound 485], for which the Ki was less than 5 nM.

Take `COc1ccc2c(c1)C(=O)N(C[C@@]1(C#Cc3ccc(C(F)(F)F)cc3)NC(=O)NC1=O)C2` [Compound 486]: the Ki was less than 5 nM.

Consider `COc1ccc2c(c1)C(=O)N(C[C@@]1(C#Cc3cnn(C)c3)NC(=O)NC1=O)C2` [Compound 487], for which the Ki was less than 5 nM.

In the case of `COc1ccc2c(c1)C(=O)N(C[C@@]1(C#Cc3cccc(Cl)c3F)NC(=O)NC1=O)C2` [Compound 488], the Ki is less than 5 nM.

Consider `COc1ccc2c(c1)C(=O)N(C[C@@]1(C#Cc3cccc(F)c3F)NC(=O)NC1=O)C2` [Compound 489], for which the inhibition constant (Ki) was less than 5 nM.

Consider `COc1ccc2c(c1)C(=O)N(C[C@@]1(C#Cc3ccc(F)cc3F)NC(=O)NC1=O)C2` [Compound 490], for which the Ki is less than 5 nM.

With `COc1ccc2c(c1)C(=O)N(C[C@@]1(C#Cc3c(F)cccc3F)NC(=O)NC1=O)C2` [Compound 491], the inhibitory constant (Ki) was less than 5 nM.

As to `COc1ccc2c(c1)C(=O)N(C[C@@]1(C#Cc3c(F)cc(F)cc3F)NC(=O)NC1=O)C2` [Compound 492], the Ki is less than 5 nM.

On to `COc1ccc2c(c1)C(=O)N(C[C@@]1(C#Cc3cccc(F)c3Cl)NC(=O)NC1=O)C2` [Compound 493], for which the Ki is less than 5 nM.

`COc1ccc2c(c1)C(=O)N(C[C@@]1(C#Cc3ccc4nc(N)sc4c3)NC(=O)NC1=O)C2` [Compound 494]: the Ki was less than 5 nM.

Take `COc1ccc2c(c1)C(=O)N(C[C@@]1(C#Cc3ccc4sc(C)nc4c3)NC(=O)NC1=O)C2` [Compound 495]: the Ki is less than 5 nM.

In the case of `COc1ccc2c(c1)C(=O)N(C[C@@]1(C#Cc3ccc(C)nc3C)NC(=O)NC1=O)C2` [Compound 496], the Ki was less than 5 nM.

With `COc1ccc2c(c1)C(=O)N(C[C@@]1(C#Cc3cc(C)ccc3F)NC(=O)NC1=O)C2` [Compound 497], the Ki was less than 5 nM.

For the compound `COc1ccc2c(c1)C(=O)N(C[C@@]1(C#Cc3cc(F)ccc3C)NC(=O)NC1=O)C2` [Compound 498], the inhibition constant (Ki) was less than 5 nM.

With `COc1ccc2c(c1)C(=O)N(C[C@@]1(C#Cc3ccc(Cl)cc3F)NC(=O)NC1=O)C2` [Compound 499], the Ki was less than 5 nM.

As for `COc1ccc2c(c1)C(=O)N(C[C@@]1(C#Cc3ccc(C)cc3F)NC(=O)NC1=O)C2` [Compound 500], the Ki is less than 5 nM.

As to `COc1ccc2c(c1)C(=O)N(C[C@@]1(C#Cc3cccc4nc(N)sc34)NC(=O)NC1=O)C2` [Compound 503], the inhibition constant (Ki) is less than 5 nM.

As for `COc1ccc2c(c1)C(=O)N(C[C@@]1(C#Cc3ccc4nc(NC5CC5)sc4c3)NC(=O)NC1=O)C2` [Compound 504], the Ki is less than 5 nM.

Consider `COc1ccc2c(c1)C(=O)N(C[C@@]1(C#Cc3ccc4sc(N)nc4c3)NC(=O)NC1=O)C2` [Compound 505], for which the Ki was less than 5 nM.

Regarding `COc1cncc(C#C[C@]2(CN3Cc4ccc(OC)cc4C3=O)NC(=O)NC2=O)c1` [Compound 506], the Ki was less than 5 nM.

Take `CNc1nc2cccc(C#C[C@]3(CN4Cc5ccc(OC)cc5C4=O)NC(=O)NC3=O)c2s1` [Compound 507]: the Ki is less than 5 nM.

Regarding `CNc1nc2cc(C#C[C@]3(CN4Cc5ccc(OC)cc5C4=O)NC(=O)NC3=O)ccc2s1` [Compound 508], the Ki was less than 5 nM.

On to `COc1ccc2c(c1)C(=O)N(C[C@@]1(C#Cc3ccc4nc(C)sc4c3)NC(=O)NC1=O)C2` [Compound 509], for which the Ki is less than 5 nM.

In the case of `COc1ccc2c(c1)C(=O)N(C[C@@]1(C#Cc3ccc(F)c(Cl)c3)NC(=O)NC1=O)C2` [Compound 510], the Ki was less than 5 nM.

For the compound `COc1ccc2c(c1)C(=O)N(C[C@@]1(C#Cc3ccc(C)s3)NC(=O)NC1=O)C2` [Compound 513], the Ki is less than 5 nM.

Turning to `COc1ccc2c(c1)C(=O)N(C[C@@]1(C#Cc3ccccc3C(F)(F)F)NC(=O)NC1=O)C2` [Compound 514], the Ki was less than 5 nM.

As for `COc1ccc2c(c1)C(=O)N(C[C@@]1(C#Cc3ccccc3OC(F)(F)F)NC(=O)NC1=O)C2` [Compound 515], the Ki was less than 5 nM.

For the compound `COc1ccc2c(c1)C(=O)N(C[C@@]1(C#Cc3ccccc3F)NC(=O)NC1=O)C2` [Compound 516], the Ki was less than 5 nM.

In the case of `COc1ccc2c(c1)C(=O)N(C[C@@]1(C#Cc3cc(F)ccc3Cl)NC(=O)NC1=O)C2` [Compound 517], the Ki was less than 5 nM.

In the case of `COc1ccc2c(c1)C(=O)N(C[C@@]1(C#Cc3cc(Cl)ccc3F)NC(=O)NC1=O)C2` [Compound 518], the Ki is less than 5 nM.

On to `COc1ccc2c(c1)C(=O)N(C[C@@]1(C#Cc3ccc(C(F)(F)F)nc3)NC(=O)NC1=O)C2` [Compound 519], for which the Ki is less than 5 nM.

As to `COc1ccc2c(c1)C(=O)N(C[C@@]1(C#Cc3sc4ccc(Cl)cc4c3C)NC(=O)NC1=O)C2` [Compound 520], the Ki is less than 5 nM.

In the case of `COc1ccc2c(c1)C(=O)N(C[C@@]1(C#Cc3cc(F)ccc3F)NC(=O)NC1=O)C2` [Compound 521], the Ki is less than 5 nM.

`COc1ccc2c(c1)C(=O)N(C[C@@]1(C#Cc3ccc(S(N)(=O)=O)s3)NC(=O)NC1=O)C2` [Compound 522]: the Ki was less than 5 nM.

In the case of `COc1ccc2c(c1)C(=O)N(C[C@@]1(C#Cc3ccc(C)nn3)NC(=O)NC1=O)C2` [Compound 523], the Ki was less than 5 nM.

As to `COc1ccc2c(c1)C(=O)N(C[C@@]1(C#Cc3cc(C)c4c(cnn4C)c3)NC(=O)NC1=O)C2` [Compound 524], the Ki is less than 5 nM.

Consider `COc1ccc2c(c1)C(=O)N(C[C@@]1(C#Cc3ccc4nc(C(F)(F)F)n(C)c4c3)NC(=O)NC1=O)C2` [Compound 525], for which the inhibitory constant (Ki) was less than 5 nM.

Regarding `COc1ccc2c(c1)C(=O)N(C[C@@]1(C#Cc3ccc4sccc4c3)NC(=O)NC1=O)C2` [Compound 526], the Ki was less than 5 nM.

On to `COc1ccc2c(c1)C(=O)N(C[C@@]1(C#Cc3cc(C)c4nn(C)cc4c3)NC(=O)NC1=O)C2` [Compound 527], for which the Ki was less than 5 nM.

Consider `COc1ccc2c(c1)C(=O)N(C[C@@]1(C#Cc3csc(C(F)F)c3)NC(=O)NC1=O)C2` [Compound 528], for which the Ki is less than 5 nM.

As to `COc1ccc2c(c1)C(=O)N(C[C@@]1(C#Cc3ccc(C(F)(F)F)s3)NC(=O)NC1=O)C2` [Compound 529], the Ki is less than 5 nM.

For `COc1ccc2c(c1)C(=O)N(C[C@@]1(C#Cc3ccc(C(F)(F)F)cc3F)NC(=O)NC1=O)C2` [Compound 530], the Ki is less than 5 nM.

As for `COc1ccc2c(c1)C(=O)N(C[C@@]1(C#Cc3ccc(S(C)(=O)=O)s3)NC(=O)NC1=O)C2` [Compound 531], the Ki is less than 5 nM.

`COc1ccc2c(c1)C(=O)N(C[C@@]1(C#Cc3csc4ccccc34)NC(=O)NC1=O)C2` [Compound 532]: the inhibitory constant (Ki) is less than 5 nM.

For `COc1ccc2c(c1)C(=O)N(C[C@@]1(C#Cc3csc(C)c3)NC(=O)NC1=O)C2` [Compound 533], the Ki is less than 5 nM.

`COc1ccc2c(c1)C(=O)N(C[C@@]1(C#Cc3cccc(=O)[nH]3)NC(=O)NC1=O)C2` [Compound 535]: the Ki is less than 5 nM.

Regarding `COc1ccc2c(c1)C(=O)N(C[C@@]1(C#Cc3ccc(=O)[nH]c3)NC(=O)NC1=O)C2` [Compound 536], the Ki is less than 5 nM.

`COc1ccc2c(c1)C(=O)N(C[C@@]1(C#Cc3ccsc3C(N)=O)NC(=O)NC1=O)C2` [Compound 537]: the Ki is less than 5 nM.

As to `COc1ccc2c(c1)C(=O)N(C[C@@]1(C#Cc3ccc(C(N)=O)s3)NC(=O)NC1=O)C2` [Compound 538], the Ki was less than 5 nM.

Take `COc1ccc2c(c1)C(=O)N(C[C@@]1(C#Cc3ccc[n+]([O-])c3)NC(=O)NC1=O)C2` [Compound 539]: the Ki was less than 5 nM.

Regarding `COc1ccc2c(c1)C(=O)N(C[C@@]1(C#Cc3cccn(C)c3=O)NC(=O)NC1=O)C2` [Compound 540], the Ki was less than 5 nM.

Consider `COc1ccc2c(c1)C(=O)N(C[C@@]1(C#Cc3cncc(N)c3)NC(=O)NC1=O)C2` [Compound 554], for which the Ki was less than 5 nM.

As for `COc1ccc2c(c1)C(=O)N(C[C@@]1(C#Cc3cnc(O)cc3C)NC(=O)NC1=O)C2` [Compound 555], the Ki was less than 5 nM.

With `COc1ccc2c(c1)C(=O)N(C[C@@]1(C#Cc3cn[nH]c3)NC(=O)NC1=O)C2` [Compound 900], the Ki is less than 5 nM.

On to `COc1ccc2c(c1)C(=O)N(C[C@@]1(C#Cc3ccc(C(=O)NC4CC4)o3)NC(=O)NC1=O)C2` [Compound 901], for which the inhibition constant Ki was less than 5 nM.

As for `COc1ccc2c(c1)C(=O)N(C[C@@]1(C#Cc3c[nH]c(C)n3)NC(=O)NC1=O)C2` [Compound 902], the Ki is less than 5 nM.

Regarding `COc1ccc2c(c1)C(=O)N(C[C@@]1(C#Cc3ccc4ncsc4c3)NC(=O)NC1=O)C2` [Compound 903], the Ki is less than 5 nM.

Turning to `COc1ccc2c(c1)C(=O)N(C[C@@]1(C#Cc3ccccc3C(C)C)NC(=O)NC1=O)C2` [Compound 904], the Ki is less than 5 nM.

As for `O=C1NC(=O)[C@@](C#Cc2ccc(F)cc2F)(CN2Cc3ccc(OC(F)F)cc3C2=O)N1` [Compound 905], the Ki was less than 5 nM.

Still in this experiment, the particulars now being: rhTACEc 70 pM, 30 μM SPDL-3, 90 min pre-incubation at 25° C.; read-out: Ki (nM), TACE inhibitory activity.
For the compound `COc1ccc2c(c1)C(=O)N(C[C@@]1(C#Cc3ccc(F)cc3F)NC(=O)NC1=O)C2` [Compound 490], the Ki came to 0.23 nM.

On to `COc1ccc2c(c1)C(=O)N(C[C@@]1(C#Cc3cncc(N)c3)NC(=O)NC1=O)C2` [Compound 554], for which the Ki was determined as 0.31 nM.
